Results: ChEMBL document CHEMBL1159088, “Design, synthesis and biological evaluation of simplified analogues of the RNA polymerase inhibitor etnangien” (Bioorg Med Chem Lett, 2010)
In brackets after ≈: the same amount, converted by molar mass.

Key:
Saccharomyces cerevisiae = test: Antibacterial activity against Saccharomyces cerevisiae; format: functional
Micrococcus luteus = test: Antibacterial activity against Micrococcus luteus; format: functional
[1] = test system: Corynebacterium glutamicum; test: Antibacterial activity against Corynebacterium glutamicum; format: functional
Staphylococcus aureus = test: Antibacterial activity against Staphylococcus aureus; format: functional
Escherichia coli = test: Antibacterial activity against Escherichia coli; format: functional
Mycolicibacterium phlei = test: Antibacterial activity against Mycobacterium phlei; format: functional
[2] = Chemical stability at pH >3; format: physicochemical
[3] = Chemical stability at pH >10; format: physicochemical
[4] = Chemical stability at pH 7; format: physicochemical; details: buffer
[5] = Chemical stability after 48 hrs; format: physicochemical; details: read-out: Stability

Compound	MIC (Saccharomyces cerevisiae)	MIC (Micrococcus luteus)	MIC [1]	MIC (Staphylococcus aureus)	MIC (Escherichia coli)	MIC (Mycolicibacterium phlei)	Stability [2]	Stability [3]	Stability [4]	remaining at 48 h [5]
COC(=O)CC/C=C(\C)[C@@H](O)C/C=C/C=C/C=C/C=C/C=C/C(C)=C/[C@@H](O)[C@@H](C)[C@@H]1C[C@H](O)CCC[C@H](OC)C/C=C\C=C\C[C@H](C)[C@@H](O)[C@H](C)[C@@H](O)[C@H](C)[C@H](O)CC(=O)O1 [ETNANGIEN METHYL ESTER]	> 40 µg/mL	0.39 µg/mL (≈ 0.456 µM)	0.24 µg/mL (≈ 0.281 µM)	2.5 µg/mL (≈ 2.92 µM)	> 20 µg/mL		Unstable	Unstable	Stable	< 5%
CO[C@@H]1C/C=C\C=C\C[C@H](C)[C@@H](O)[C@H](C)[C@@H](O)[C@H](C)[C@H](O)CC(=O)O[C@H]([C@H](C)[C@H](O)/C=C(C)/C=C/C=C/C=C/C=C/C=C/C[C@H](O)/C(C)=C/CCC(=O)O)C[C@H](O)CCC1 [ETNANGIEN]	> 80 µg/mL	0.06 µg/mL (≈ 0.0713 µM)	0.03 µg/mL (≈ 0.0357 µM)	1 µg/mL (≈ 1.19 µM)	> 80 µg/mL	0.12 µg/mL (≈ 0.143 µM)	Unstable	Unstable	Stable	

Further lines, results first:

MIC (Saccharomyces cerevisiae)	MIC (Micrococcus luteus)	MIC [1]	MIC (Staphylococcus aureus)	MIC (Escherichia coli)	MIC (Mycolicibacterium phlei)	Stability [2]	Stability [3]	Stability [4]	remaining at 48 h [5]	Compound
> 20 µg/mL	> 20 µg/mL	10 µg/mL (≈ 15.4 µM)	> 20 µg/mL	> 20 µg/mL	20 µg/mL (≈ 30.7 µM)					CO[C@@H]1C/C=C\C=C\C[C@H](C)[C@H]2OC(C)(C)O[C@H]([C@H]2C)[C@H](C)[C@H](O)CC(=O)O[C@H]([C@H](C)[C@H](O)/C=C(C)/C=C/CO)C[C@H](O)CCC1
> 20 µg/mL	> 20 µg/mL	20 µg/mL (≈ 31.5 µM)	> 20 µg/mL	> 20 µg/mL	> 20 µg/mL					COc1ccc(COC[C@@H](C)[C@@H](O)C[C@H]2CCC[C@H](OC)C/C=C\C=C\C[C@H](C)[C@@H](O)[C@H](C)[C@@H](O)[C@H](C)[C@H](O)CC(=O)O2)cc1
> 20 µg/mL	> 20 µg/mL	10 µg/mL (≈ 15.8 µM)	> 20 µg/mL	> 20 µg/mL	20 µg/mL (≈ 31.5 µM)					COc1ccc(COC[C@@H](C)[C@@H]2C[C@H](O)CCC[C@H](OC)C/C=C\C=C\C[C@H](C)[C@@H](O)[C@H](C)[C@@H](O)[C@H](C)[C@H](O)CC(=O)O2)cc1
